Source: patent publication US11931482B2 (priority 2019, dated 2024)

Legend:
[1] = tested on: Staphylococcus aureus strain MRSA USA300; assay: Microdilution assay, minimum inhibitory concentration of non-coating incorporated auranofin; assay type: cell-based; settings: TSBG, ~18 hours
Protocol: Auranofin release from PU+auranofin-coated catheters was monitored by incubating each coated catheter in 1.98 mL of tryptic soy broth supplemented with 0.25% glucose (TSBG) at 37° C. with shaking at 110 rpm. […] Heilmann et al., Infect. Immun., 64, 277-82 (1996); Lim et al., J. Bacteriol., 186, 722-729 (2004). Every twenty-four hours, the release solutions were collected and completely replaced with fresh medium. A microdilution assay, as described by Shukla & Shukla, J. Mater. Chem. B, 6, 6444-6458 (2018), was used to determine the amount of auranofin contained in the media release samples by comparing the antibacterial activity to that of known concentrations of non-coating incorporated auranofin. […] Staphylococcus aureus strain MRSA USA300 (10 μL) at a final concentration of 10^5 CFU/mL in the exponential growth phase (as determined by optical density) was added to these wells. […] Subsequently, the optical density (OD) of the samples was read at 600-nm using a Cytation3 microplate reader (BioTek, Winooski, VT, USA). The normalized bacteria density was calculated using Equation (1).
The minimum inhibitory concentration of the auranofin control against USA300 was determined as the concentration range of auranofin needed to observe a statistically significant transition of normalized bacteria density from […]. […]

[2] = tested on: Gram-positive pathogenic bacteria, including Mycobacterium tuberculosis, Bacillus subtilis, Enterococcus faecalis, Enterococcus faecium, Staphylococcus aureus; settings: Hassanein et al. 2017; cited from earlier work
[3] = oral antirheumatic therapy; Egsmose et al. 1995; cited from earlier work
[4] = tested on: preformed Staphylococcus aureus biofilms; settings: within two hours of exposure; Torres et al. 2016; cited from earlier work
MRSA USA300 = assay: Kirby-Bauer assay, inner and outer surfaces of bisected coated catheters; assay type: cell-based; settings: Staphylococcus aureus, read-out: average zone of inhibition diameter
Text: To evaluate the auranofin release, the inventors used a Kirby Bauer assay to visualize the bacterial inhibition and determine if the catheter released the auranofin into the surrounding media. Coated catheters were split through the circumference of the material to expose both the inner and outer surfaces. […] The inventors then placed these catheter pieces were then placed on a bacteria-seeded agar plate with the respective surfaces face down.
Antibacterial and antibiofilm activity of PU+auranofin catheter coatings was examined against MRSA USA300, a community-associated MRSA strain. Kirby-Bauer and broth bacteria survival assays on the coated catheters and their release solutions were conducted, respectively. For the Kirby-Bauer assay, MRSA USA300 in the exponential growth phase at a concentration of 10^8 CFU/mL was spread on tryptic soy agar plates. PU+auranofin-coated and PU+auranofin-uncoated catheters were cut in half lengthwise using a scalpel. Both the inner and outer surfaces of the catheters were placed in direct contact with the bacteria seeded agar and incubated for twenty-four hours at 37° C. These plates were then photographed using a Canon PowerShot S110 digital camera (Tokyo, Japan).

Row | Compound | minimum inhibitory concentration against USA300 [1] [µg/mL] | minimum inhibitory concentration (MIC) against these bacteria [2] [µg/mL] | cumulative toxicity during long-term treatments [3] | effect on preformed Staphylococcus aureus biofilms [4] | zone of inhibition at 30 µg/disc (MRSA USA300) [mm]
1 | CC(=O)OCC1OC([S-])C(OC(C)=O)C(OC(C)=O)C1OC(C)=O.CCP(CC)CC.[Au+] (centres unmarked) [auranofin, Gold(+1) cation; 3,4,5-triacetyloxy-6-(acetyloxymethyl) oxane-2-thiolate; triethylphosphanium] | 0.063 | ≥ 0.25 | no cumulative toxicity | inhibit preformed Staphylococcus aureus biofilms | 
2 | CN[C@H](CC(C)C)C(=O)N[C@H]1C(=O)N[C@@H](CC(N)=O)C(=O)N[C@H]2C(=O)N[C@H]3C(=O)N[C@H](C(=O)N[C@H](C(=O)O)c4cc(O)cc(O)c4-c4cc3ccc4O)[C@H](O)c3ccc(c(Cl)c3)Oc3cc2cc(c3O[C@@H]2O[C@H](CO)[C@@H](O)[C@H](O)[C@H]2O[C@H]2C[C@](C)(N)[C@H](O)[C@H](C)O2)Oc2ccc(cc2Cl)[C@H]1O [vancomycin] |  |  |  |  | 14.8 ± 2
